The record followed here is article PMC7210504 (Biochemistry, 2017).

In general, Kd refers to the equilibrium constant for the complex coming apart. A high value points to lower affinity. In general, stoichiometry N refers to the number of molecules, sites or subunits per partner or assembly.

Assay [1] concerns the target T1, ChuY (Escherichia coli, UniProt Q8X5N4). The assay can be described thus: biochemical.
Assay [2] has as its target T1, ChuY. The settings on record: read-out: steady state parameters^a / Km ^app; 30 μM NADPH; anaerobic, pH 8.1, 25 °C.
Assay [3] has as its target T1, ChuY. The settings on record: 30 μM NADPH; anaerobic, pH 8.1, 25 °C; substrate inhibition constant (kinetic).
The target in assay [4] is ChuY from Escherichia coli O157:H7 (anaerobilin reductase) (Escherichia coli O157:H7). Nature of the assay: AUC.

On to `NC(=O)C1=CN([C@@H]2O[C@H](COP(=O)(O)OP(=O)(O)OC[C@H]3O[C@@H](n4cnc5c(N)ncnc54)[C@H](OP(=O)(O)O)[C@@H]3O)[C@@H](O)[C@H]2O)C=CC1` [NADPH], for which, on ChuY [1], binding was put at a Kd of 2.7 ± 0.2 µM. On to deuteroanaerobilin [DAB], for which, at ChuY [2], the Km worked out at 1.6 ± 0.3 µM. Further, at ChuY [3], the “equilibrium binding^b / Ki ^app” value came out at 14 ± 2 µM. In assay [4], “ChuY from Escherichia coli O157:H7 (anaerobilin reductase) (enzyme)” returned a percent of the c(s) distribution (species consistent with a dimer) of 90% and a stoichiometry N of 2.
